Experimental data taken from PubChem BioAssay AID248 (DTP/NCI, 2004).
Where “and” joins values, the source holds several entries; their conditions need not be identical. Equal values may be shown once. Inconclusive results and toxic doses are left out. Cut-off read from the data, not from the text of the source: active = T/C of 150% or more; inactive = T/C below 125%.

System: L1210 leukemia ip in BDF1 mice, survival T/C
Experiment: NCI In Vivo Anticancer Drug Screen. Data for tumor model L1210 Leukemia (intraperitoneal) in B6D2F1 (BDF1) mice
Conditions: endpoint: mean survival time, higher = longer survival
In short: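 Value reflects the ratio of survival in compound-treated mice to survival in vehicle-treated controls, with both groups carrying the same transplanted tumor.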

[1] = dose: 100.0 mg/kg/injection, schedule: Q04DX002 (ip), vehicle: saline
[2] = dose: 200.0 mg/kg/injection, schedule: Q04DX002 (ip), vehicle: saline
[3] = dose: 400.0 mg/kg/injection, schedule: Q04DX002 (ip), vehicle: saline
[4] = dose: 100.0 mg/kg/injection, schedule: Q01DX009 (ip), vehicle: saline
[5] = dose: 100.0 mg/kg/injection, schedule: Q04DX003 (ip), vehicle: saline
[6] = dose: 200.0 mg/kg/injection, schedule: Q01DX009 (ip), vehicle: saline
[7] = dose: 200.0 mg/kg/injection, schedule: Q04DX003 (ip), vehicle: saline
[8] = dose: 400.0 mg/kg/injection, schedule: Q01DX009 (ip), vehicle: saline
[9] = dose: 400.0 mg/kg/injection, schedule: Q04DX003 (ip), vehicle: saline
[10] = dose: 50.0 mg/kg/injection, schedule: Q01DX009 (ip), vehicle: saline with Tween-80
[11] = dose: 100.0 mg/kg/injection, schedule: Q01DX009 (ip), vehicle: saline with Tween-80
[12] = dose: 100.0 mg/kg/injection, schedule: Q04DX003 (ip), vehicle: Klucel (hydroxypropylcellulose) (HPC)
[13] = dose: 200.0 mg/kg/injection, schedule: Q04DX003 (ip), vehicle: Klucel (hydroxypropylcellulose) (HPC)
[14] = dose: 100.0 mg/kg/injection, schedule: Q01DX001 (ip), vehicle: saline
[15] = dose: 200.0 mg/kg/injection, schedule: Q01DX001 (ip), vehicle: saline
[16] = dose: 400.0 mg/kg/injection, schedule: Q01DX001 (ip), vehicle: saline
[17] = dose: 100.0 mg/kg/injection, schedule: Q01DX001 (ip), vehicle: carboxymethylcellulose (CMC)
[18] = dose: 200.0 mg/kg/injection, schedule: Q01DX001 (ip), vehicle: carboxymethylcellulose (CMC)
[19] = dose: 400.0 mg/kg/injection, schedule: Q01DX001 (ip), vehicle: carboxymethylcellulose (CMC)

Measured: T/C

CN(C)CCSCCO
inactive: [1] 107 % of control | [2] 95 % of control | [3] 107 % of control

CC(N)(CCCN)C(=O)O (centres undefined)
inactive: [4] 102 % of control | [5] 104 % of control | [6] 102 % of control | [7] 102 % of control | [8] 94 % of control | [9] 101 % of control

C#CC1(NC(=S)Nc2cccc(OC)c2)CCCCC1
inactive: dose: 100.0 mg/kg/injection, schedule: Q04DX002 (ip), vehicle: Klucel (hydroxypropylcellulose) (HPC) 94 % of control | dose: 200.0 mg/kg/injection, schedule: Q04DX002 (ip), vehicle: Klucel (hydroxypropylcellulose) (HPC) 109 % of control | dose: 400.0 mg/kg/injection, schedule: Q04DX002 (ip), vehicle: Klucel (hydroxypropylcellulose) (HPC) 96 % of control

COc1cc2c(cc1[N+](=O)[O-])C(=O)CCCC2
inactive: [10] 88 % of control | [11] 92 % of control

CC(Cl)CN(CC(C)Cl)C(=O)OCC(NC(=O)OCc1ccccc1)C(=O)OCc1ccccc1 (centres undefined)
inactive: dose: 100.0 mg/kg/injection, schedule: Q01DX009 (ip), vehicle: Klucel (hydroxypropylcellulose) (HPC) 88 % of control | [12] 87 % of control | [13] 96 % of control | dose: 400.0 mg/kg/injection, schedule: Q01DX009 (ip), vehicle: Klucel (hydroxypropylcellulose) (HPC) 91 % of control | dose: 400.0 mg/kg/injection, schedule: Q04DX003 (ip), vehicle: Klucel (hydroxypropylcellulose) (HPC) 91 % of control

CCCCCCCCCCCCCC(=O)OCC(OC(=O)CCCCCCCCCCCCC)C(OC(=O)CCCCCCCCCCCCC)C(OC(=O)CCCCCCCCCCCCC)C(C=O)OC(=O)CCCCCCCCCCCCC (centres undefined)
inactive: dose: 100.0 mg/kg/injection, schedule: Q01DX001 (ip), vehicle: other 90 % of control | dose: 200.0 mg/kg/injection, schedule: Q01DX001 (ip), vehicle: other 97 % of control | dose: 400.0 mg/kg/injection, schedule: Q01DX001 (ip), vehicle: other 92 % of control

O=[N+]([O-])c1ccc2nocc2c1
inactive: [12] 95 % of control

COc1ccc(C)cc1NC(=O)OCCOc1ccc(Cl)c(C)c1
inactive: [10] 93 % of control | [11] 90 % of control | dose: 200.0 mg/kg/injection, schedule: Q01DX009 (ip), vehicle: saline with Tween-80 93 % of control

Cc1[nH]c2ccc(N=CN(C)C)cc2c1C
inactive: dose: 100.0 mg/kg/injection, schedule: Q04DX002 (ip), vehicle: saline with Tween-80 94 % of control

O=c1[nH]cnc2nc(I)[nH]c12
inactive: [14] 104 % of control | [15] 98 % of control | [16] 98 % of control

CCOC(=O)CSC1=NCCN1
inactive: [14] 105 % of control | [15] 113 % of control | [16] 105 % of control

CC(C)(C)OC(=O)NCC(=O)O
inactive: dose: 50.0 mg/kg/injection, schedule: Q01DX009 (ip), vehicle: saline 93 % of control | dose: 75.0 mg/kg/injection, schedule: Q01DX001 (ip), vehicle: acetone 93 % of control | [4] 96 % of control | [5] 97 % of control | dose: 150.0 mg/kg/injection, schedule: Q01DX001 (ip), vehicle: acetone 99 % of control | [6] 93 % of control | [7] 106 % of control | dose: 300.0 mg/kg/injection, schedule: Q01DX001 (ip), vehicle: acetone 103 % of control

COc1cc2c(cc1OC)C(Cc1ccc([N+](=O)[O-])cc1)=[N+](C)CC2
inactive: [17] 103 % of control | [18] 105 % of control | [19] 108 % of control

CN(C)P1(=O)N(c2ccc(Cl)cc2)P(=O)(N(C)C)N1c1ccc(Cl)cc1 (centres undefined)
inactive: [1] 96 % of control | [2] 100 % of control | [3] 93 % of control

C1CC2C(CCCC23OCCO3)C2(C1)OCCO2 (centres undefined)
inactive: [4] 115 % of control and 111 % of control | [5] 94 % of control and 99 % of control | [6] 122 % of control and 107 % of control | [7] 112 % of control and 101 % of control | [8] 108 % of control and 98 % of control | [9] 109 % of control and 97 % of control

O=S1(=O)CCCCC1C(O)(c1ccccc1)c1ccccc1 (centres undefined)
inactive: dose: 12.5 mg/kg/injection, schedule: Q04DX002 (ip), vehicle: saline with Tween-80 97 % of control | dose: 25.0 mg/kg/injection, schedule: Q04DX002 (ip), vehicle: saline with Tween-80 102 % of control | dose: 50.0 mg/kg/injection, schedule: Q04DX002 (ip), vehicle: saline with Tween-80 94 % of control

CCCCCC(=O)Nc1cccc(O)c1
inactive: dose: 100.0 mg/kg/injection, schedule: Q04DX003 (ip), vehicle: saline with Tween-80 92 % of control | dose: 200.0 mg/kg/injection, schedule: Q04DX003 (ip), vehicle: saline with Tween-80 98 % of control

COc1ccc2c(c1C)C(=O)c1ccccc1C2
inactive: dose: 100.0 mg/kg/injection, schedule: Q01DX001 (ip), vehicle: saline with Tween-80 93 % of control | dose: 200.0 mg/kg/injection, schedule: Q01DX001 (ip), vehicle: saline with Tween-80 101 % of control | dose: 400.0 mg/kg/injection, schedule: Q01DX001 (ip), vehicle: saline with Tween-80 90 % of control

O=C(Nc1ccccc1)Oc1cccc2cccnc12
inactive: dose: 50.0 mg/kg/injection, schedule: Q04DX003 (ip), vehicle: Klucel (hydroxypropylcellulose) (HPC) 100 % of control | [12] 105 % of control | [13] 97 % of control

Cn1ncc2[nH]c(=O)n(O)c(=O)c21
inactive: dose: 50.0 mg/kg/injection, schedule: Q01DX001 (ip), vehicle: saline 93 % of control | [14] 96 % of control | [15] 100 % of control | [16] 100 % of control

CC(O)C(O)C(O)C(/C=N\NC(N)=S)=N/NC(N)=S (centres undefined)
inactive: [4] 95 % of control | [5] 104 % of control | [6] 89 % of control | [7] 105 % of control | [8] 90 % of control | [9] 94 % of control

CN(CCCl)c1ccc(C2N(Cc3ccccc3)c3ccccc3N2Cc2ccccc2)cc1
inactive: dose: 6.2 mg/kg/injection, schedule: Q01DX001 (ip), vehicle: carboxymethylcellulose (CMC) 94 % of control | dose: 12.5 mg/kg/injection, schedule: Q01DX001 (ip), vehicle: carboxymethylcellulose (CMC) 103 % of control

O=C1c2cc(Br)ccc2-c2c(Cl)cc(Br)cc21
inactive: [17] 105 % of control | [18] 97 % of control | [19] 105 % of control
